These results are taken from publication PMC8092268, “Quorum Sensing in Streptococcus mutans Regulates Production of Tryglysin, a Novel RaS-RiPP Antimicrobial Compound” (mBio, 2021).

Assay [1] has as its system Pshp-luxAB reporter (PdrA/SHP system). Kind of assay: luciferase assay, chromosomal Pshp-luxAB reporter, wild type. The settings on record: CDM; for induction of Pshp-luxAB by tryglysins: 100 nM tryglysin.
The next assay has as its system S. agalactiae A909. Briefly: growth inhibition by tryglysins. Further details: key: −: not inhibited; +: mildly inhibited; ++: inhibited. The settings on record: 100 nM tryglysin, CDM, 37°C, 5% CO2, OD600 every hour; summary of growth curves. In kind it is cell-based, Streptococcus agalactiae. On the procedure: (§1) For experiments to examine the effect of tryglysins, bacterial strains were grown from prestored glycerol stocks at −80°C and inoculated into THY broth. […] To monitor growth, OD600 was measured using a GENESYS 30 Vis spectrophotometer every hour.

Another assay relates to S. gordonii Challis Bt. Briefly: growth inhibition by tryglysins. The settings on record: 100 nM tryglysin, CDM, 37°C, 5% CO2, OD600 every hour; summary of growth curves. In kind it is cell-based, Streptococcus gordonii. Further details: key: −: not inhibited; +: mildly inhibited; ++: inhibited. As for the experimental part: as §1
The test system of assay [2] is S. mutans UA159. Briefly: cell chaining by microscopy. The class given is cell-based, Streptococcus mutans. The note with it: 100 nM. On the procedure: For microscopic analysis of live cells exposed to tryglysins, S. mutans strains were inoculated and grown as described above in the “Luciferase assays with chromosomal reporters” section. […] For microscopic analysis of samples, 2 μl of live cells was taken at 2 h, 5 h, and 7 h after the addition of tryglysins and examined using an Olympus CKX53 inverted microscope with a 40× LCACHN-iPC infinity objective (LCACHN40XIPC; numerical aperture, 0.55) connected to a SC50 camera (Olympus). Images were processed using Olympus Stream Image Analysis software (Olympus).
For microscopic analysis of fixed cells exposed to tryglysin A, S. mutans strains were inoculated and grown as described above in the “Luciferase assays with chromosomal reporters” section. […] Supernatant was discarded, and cells were resuspended in 1 ml of fresh CDM. Resuspended cells were dropped into 10 ml of ice-cold 80% methanol and incubated for 1 h at room temperature. Afterwards, 800 μl of 4% paraformaldehyde was added to each methanol cell suspension. The mixture was incubated at room temperature for 5 min, and cells were spun down at 2,500 × g for 10 min. Supernatant was discarded, and cells were resuspended in 200 to 800 μl chilled GTE buffer (50 mM glucose, 20 mM Tris-HCl [pH 7.5], 1 mM EDTA). Cells were kept at 4°C overnight, and then 2 to 5 μl of cells in GTE buffer were placed on a microscope slide. Prepared slides were examined using an Olympus BX51 fluorescence microscope with a 100× UPLFLN objective (UPLFLN 100XO2; numerical aperture, 1.3) connected to an Olympus DP72 Single Chip color charge-coupled-device (CCD) camera. Images were processed using ImageJ 1.52i ([80]). […] Cells were classified as being in chains greater than three per chain or equal to or lesser than three per chain. The percentage of cells belonging to either of these categories was calculated as the number of cells in the category/total number of cells. […] For statistical analysis, data were analyzed via a one-way analysis of variance (ANOVA) with Dunnet’s multiple comparison posttest in Graph Pad Prism.

In the next assay the test system is S. ferus DSM 20646. Kind of assay: growth inhibition by tryglysins. In kind it is cell-based, Streptococcus ferus. Further details: key to Level of inhibition: −: not inhibited; +: mildly inhibited; ++: inhibited. The note with it: CDM; for Level of inhibition: 100 nM tryglysin, 37°C, 5% CO2, OD600 every hour, summary of growth curves; for growth inhibition at 100 nM (titration): Fig. 6. On the procedure:
as §1

Assay [3] concerns S. mutans UA159. Kind of assay: growth inhibition by UV-exposed tryglysin A. The class given is cell-based, Streptococcus mutans. The note with it: short-wavelength UV light 1 h, 2 h or 4 h; 100 or 500 nM tryglysin A; CDM. As for the experimental part:
To monitor growth, OD600 was measured using a GENESYS 30 Vis spectrophotometer every hour, and data were plotted using Graph Pad Prism 8.0.0.

Another assay relates to L. lactis ATCC 11454. Briefly: growth inhibition by tryglysins. The class given is cell-based, Lactococcus lactis. Details: key: −: not inhibited; +: mildly inhibited; ++: inhibited. The note with it: 100 nM tryglysin, CDM, 37°C, 5% CO2, OD600 every hour; summary of growth curves. As for the experimental part: as §1
For the next assay, the system named is S. mitis CCUG 31611. Briefly: growth inhibition by tryglysins. In kind it is cell-based, Streptococcus mitis. Further details: key: −: not inhibited; +: mildly inhibited; ++: inhibited. The note with it: 100 nM tryglysin, CDM, 37°C, 5% CO2, OD600 every hour; summary of growth curves. As for the experimental part:
as §1

Assay [4] concerns S. mutans UA159. Briefly: CFU/ml assay (bacteriostatic or bactericidal). In kind it is cell-based, Streptococcus mutans. The settings on record: 100 nM, CDM; for recovery of viability: 24 h; for mode of action on viability: overall effect. On the procedure:
To perform CFU/milliliter assays, S. mutans was grown overnight, washed, and resuspended in CDM as outlined above in the “Luciferase assays with chromosomal reporters” section, with the exception that replicate tubes for harvest at each time point for both no-tryglysin and tryglysin-treated conditions were inoculated from bacterial cultures resuspended overnight. […] At this time point (0 h) and at 1, 2, 4, 6, 8 and 24 h after tryglysin addition, a set of no-tryglysin and tryglysin-treated tubes were harvested. At each time point, 100 μl from each tube in a set was harvested and diluted 1:10 successively in fresh THY. Dilutions from 10^−3 to 10^−6 (depending on the time point) were plated as follows: for each dilution, 10 μl was plated in triplicate on THY agar plates and allowed to drip vertically down the plate. This allowed for the spread of S. mutans colonies for later CFU/ml counting. After each dilution plating, plates were placed at 37°C and incubated for 48 h. […] After 2 days of incubation, colonies were counted for each time point, replicate, and condition, and the number of CFU/milliliter was calculated. Drip plates were considered to have accurate counts if colonies were between 10 and 150 colonies per drip. […] Statistical analysis was performed using a one-way ANOVA with Sidak’s multiple comparison posttest on Graph Pad Prism.

For the next assay, the system named is S. oralis 108. Kind of assay: growth inhibition by tryglysins. The class given is cell-based, Streptococcus oralis. Further details: key: −: not inhibited; +: mildly inhibited; ++: inhibited. The note with it: 100 nM tryglysin, CDM, 37°C, 5% CO2, OD600 every hour; summary of growth curves. On the procedure:
as §1

For assay [5], the system named is S. mutans UA159. Briefly: growth inhibition by tryglysins. The class given is cell-based, Streptococcus mutans. The note with it: for Level of inhibition: 100 nM tryglysin, 37°C, 5% CO2, OD600 every hour, summary of growth curves; for growth inhibition at 100 nM (titration): 9-h growth assay, Fig. 6. Further details: key to Level of inhibition: −: not inhibited; +: mildly inhibited; ++: inhibited. As for the experimental part:
as §1

Another assay deals with S. pyogenes NZ131. Kind of assay: growth inhibition by tryglysins. Further details: key: −: not inhibited; +: mildly inhibited; ++: inhibited. The class given is cell-based, Streptococcus pyogenes. The note with it: 100 nM tryglysin, CDM, 37°C, 5% CO2, OD600 every hour; summary of growth curves. As for the experimental part: as §1
The next assay concerns E. faecalis V583. Kind of assay: growth inhibition by tryglysins. The note with it: 100 nM tryglysin, CDM, 37°C, 5% CO2, OD600 every hour; summary of growth curves. The class given is cell-based, Enterococcus faecalis. Details: key: −: not inhibited; +: mildly inhibited; ++: inhibited. As for the experimental part: as §1
The test system of assay [6] is PwgkA-luxAB reporter (PdrA/SHP system). Kind of assay: luciferase assay, chromosomal PwgkA-luxAB reporter, wild type. The settings on record: CDM, 100 nM tryglysin.
The next assay relates to S. pneumoniae D39. Briefly: growth inhibition by tryglysins. Further details: key to Level of inhibition: −: not inhibited; +: mildly inhibited; ++: inhibited. In kind it is cell-based, Streptococcus pneumoniae. The note with it: for Level of inhibition: 100 nM tryglysin, CDM, 37°C, 5% CO2, OD600 every hour, summary of growth curves. On the procedure: as §1
The next assay deals with S. bovis JB1. Briefly: growth inhibition by tryglysins. Further details: key: −: not inhibited; +: mildly inhibited; ++: inhibited. The settings on record: 100 nM tryglysin, CDM, 37°C, 5% CO2, OD600 every hour; summary of growth curves. The class given is cell-based, Streptococcus bovis. As for the experimental part: as §1
Where [7] appears, read: 5 h, A: one-way ANOVA with Dunnet's posttest.
Setting [8] is: 7 h, A: one-way ANOVA with Dunnet's posttest.

Entries after “also recorded” stand apart in the source; their conditions may differ. Marks after values point to notes of the source that are not given here. No end group written: not given here.

For the substance GLDWWSL [XIP, reference compound], the “induction of Pshp-luxAB reporter (cross talk)” value in [1] (1 μM, Fig. S2C, performed twice) was “did not observe any induction”.
Consider “VNSWGKH (also: sidechain bridge or staple (positions not given here)) [tryglysin A, macrocyclic 7-mer RiPP from S. ferus, VNSWGKH with tetrahydro[5,6]benzindole modification]”, for which the Level of inhibition entry with S. agalactiae A909 is “++”; with S. gordonii Challis Bt, “+”; in the assay on S. ferus DSM 20646 it was “++”; in the assay with L. lactis ATCC 11454, “−”; with S. mitis CCUG 31611, “++”; in the assay on S. oralis 108, “++”. For the same substance, the Level of inhibition entry in the assay with S. mutans UA159 [5] (CDM) is reported as “++”; in the assay with S. pyogenes NZ131, “−”; in the assay on E. faecalis V583, “−”; with S. pneumoniae D39, “++^b”; with S. bovis JB1, “+”. Besides, the results for the cell chaining entry in the assay with S. mutans UA159 [2] (2 h), with S. mutans UA159 [2] (setting [7]) and in the assay on S. mutans UA159 [2] (setting [8]) were “small chains were observed”, “significantly increased” and “significantly increased”, respectively. Further, the “growth inhibition at 100 nM (titration)” value in the assay on S. ferus DSM 20646 and in the assay on S. mutans UA159 [5] (CDM) was “substantially inhibited” each time. Besides, in the assay with S. mutans UA159 [3], the “inhibitory activity after UV exposure” value is “Proportionate decrease of inhibitory activity was observed; also recorded: inhibitory activity can be inactivated by exposure to UV light”. Further, the recovery of viability result in the assay with S. mutans UA159 [4] is recorded as “treated cells were able to overcome this by 24 h”. The “mode of action on viability” value with S. mutans UA159 [4] is “bacteriostatic activities rather than bactericidal”. Further, the “induction of Pshp-luxAB by tryglysins” value in assay [1] is “do not induce the system”. In the assay on S. mutans UA159 [5], the “optical density of cultures parallel to CFU assay” value is “A proportionate inhibition and restoration of growth were observable by optical density measurements”. Moreover, the “induction of PwgkA-luxAB by tryglysins” value in [6] is “do not induce the system”. Moreover, in the assay with S. pneumoniae D39 (100 nM, three experiments), the reproducibility of inhibition result was “b For S. pneumoniae D39, two experiments showed inhibition with 100 nM tryglysin A, one experiment did not”.
For “VNCWGKH (also: sidechain bridge or staple (positions not given here)) [tryglysin B, 7-mer macrocyclic peptide VNCWGKH carrying the tetrahydro[5,6]benzindole modification, predicted product of the S. mutans wgk cluster]”, the Level of inhibition entry in the assay on S. agalactiae A909 was “+”; in the assay with S. gordonii Challis Bt, “+”; in the assay on S. ferus DSM 20646 it was “++”; with L. lactis ATCC 11454 it was “−”; in the assay with S. mitis CCUG 31611, “++”; in the assay with S. oralis 108, “++”. Also, the Level of inhibition result in the assay on S. mutans UA159 [5] (CDM) is recorded as “++”; in the assay with S. pyogenes NZ131, “−”; in the assay on E. faecalis V583, “−”; in the assay on S. pneumoniae D39 it was “++”; in the assay on S. bovis JB1 it was “+”. The cell chaining entry in the assay with S. mutans UA159 [2] (2 h) is reported as “small chains were observed”; in the assay with S. mutans UA159 [2] (setting [7]), “appeared to do the same”; in the assay on S. mutans UA159 [2] (setting [8]) it was “appeared to do the same”. In addition, the “growth inhibition at 100 nM (titration)” value with S. ferus DSM 20646 and in the assay with S. mutans UA159 [5] (CDM) was “substantially inhibited” throughout. Further, the recovery of viability entry in the assay with S. mutans UA159 [4] was “treated cells were able to overcome this by 24 h”. Besides, the “mode of action on viability” value in the assay on S. mutans UA159 [4] is “bacteriostatic activities rather than bactericidal”. In assay [1], the “induction of Pshp-luxAB by tryglysins” value is listed as “do not induce the system”. Also, in the assay with S. mutans UA159 [5], the “optical density of cultures parallel to CFU assay” value was “A proportionate inhibition and restoration of growth were observable by optical density measurements”. For the same substance, the “concentration required for complete growth inhibition” value in the assay with S. mutans UA159 [5] (CDM, over the 9-h growth assay, Fig. 6A) was 1 µM. Also, the “induction of PwgkA-luxAB by tryglysins” value in assay [6] is on record as “do not induce the system”.
